± gives the expanded uncertainty stated by the source.
Assay: xn = mol fraction of the nth substance listed
Details: Liquid, Vibrating wire viscometry

## CCC(C)O (centres undefined) [butan-2-ol] + CC(C)CC(C)(C)C
313.15 K, 120000 kPa, x1 = 0.5001
  viscosity: 1.74 ± 0.028 mPa·s
313.15 K, 120000 kPa, x1 = 0.7996
  viscosity: 3.051 ± 0.049 mPa·s
313.15 K, 120000 kPa, x1 = 1
  viscosity: 5.179 ± 0.082 mPa·s
313.15 K, 140000 kPa, x1 = 0.2999
  viscosity: 1.598 ± 0.026 mPa·s
313.15 K, 140000 kPa, x1 = 0.5001
  viscosity: 1.973 ± 0.032 mPa·s
313.15 K, 140000 kPa, x1 = 0.7996
  viscosity: 3.552 ± 0.056 mPa·s
313.15 K, 140000 kPa, x1 = 1
  viscosity: 5.933 ± 0.094 mPa·s
333.15 K, 100 kPa, x1 = 0.2999
  viscosity: 0.3574 ± 0.0073 mPa·s
333.15 K, 100 kPa, x1 = 0.5001
  viscosity: 0.4132 ± 0.008 mPa·s
333.15 K, 100 kPa, x1 = 0.7996
  viscosity: 0.6203 ± 0.011 mPa·s
333.15 K, 100 kPa, x1 = 1
  viscosity: 1.007 ± 0.017 mPa·s
333.15 K, 1000 kPa, x1 = 0.2999
  viscosity: 0.3614 ± 0.0073 mPa·s
333.15 K, 1000 kPa, x1 = 0.5001
  viscosity: 0.4166 ± 0.0081 mPa·s
333.15 K, 1000 kPa, x1 = 0.7996
  viscosity: 0.631 ± 0.011 mPa·s
333.15 K, 1000 kPa, x1 = 1
  viscosity: 1.023 ± 0.017 mPa·s
333.15 K, 5000 kPa, x1 = 0.2999
  viscosity: 0.3814 ± 0.0076 mPa·s
333.15 K, 5000 kPa, x1 = 0.5001
  viscosity: 0.4455 ± 0.0085 mPa·s
333.15 K, 5000 kPa, x1 = 0.7996
  viscosity: 0.6669 ± 0.012 mPa·s
333.15 K, 5000 kPa, x1 = 1
  viscosity: 1.078 ± 0.018 mPa·s
333.15 K, 10000 kPa, x1 = 0.2999
  viscosity: 0.4083 ± 0.008 mPa·s
333.15 K, 10000 kPa, x1 = 0.5001
  viscosity: 0.4682 ± 0.0088 mPa·s
333.15 K, 10000 kPa, x1 = 0.7996
  viscosity: 0.7064 ± 0.012 mPa·s
333.15 K, 10000 kPa, x1 = 1
  viscosity: 1.133 ± 0.019 mPa·s
333.15 K, 20000 kPa, x1 = 0.2999
  viscosity: 0.4584 ± 0.0087 mPa·s
333.15 K, 20000 kPa, x1 = 0.5001
  viscosity: 0.5293 ± 0.0097 mPa·s
333.15 K, 20000 kPa, x1 = 0.7996
  viscosity: 0.7854 ± 0.013 mPa·s
333.15 K, 20000 kPa, x1 = 1
  viscosity: 1.254 ± 0.021 mPa·s
333.15 K, 30000 kPa, x1 = 0.2999
  viscosity: 0.5124 ± 0.0095 mPa·s
333.15 K, 30000 kPa, x1 = 0.5001
  viscosity: 0.6041 ± 0.011 mPa·s
333.15 K, 30000 kPa, x1 = 0.7996
  viscosity: 0.8701 ± 0.015 mPa·s
333.15 K, 30000 kPa, x1 = 1
  viscosity: 1.372 ± 0.023 mPa·s
333.15 K, 40000 kPa, x1 = 0.2999
  viscosity: 0.5669 ± 0.01 mPa·s
333.15 K, 40000 kPa, x1 = 0.5001
  viscosity: 0.6689 ± 0.012 mPa·s
333.15 K, 40000 kPa, x1 = 0.7996
  viscosity: 0.9706 ± 0.016 mPa·s
333.15 K, 40000 kPa, x1 = 1
  viscosity: 1.491 ± 0.024 mPa·s
333.15 K, 50000 kPa, x1 = 0.2999
  viscosity: 0.6217 ± 0.011 mPa·s
333.15 K, 50000 kPa, x1 = 0.5001
  viscosity: 0.7304 ± 0.013 mPa·s
333.15 K, 50000 kPa, x1 = 0.7996
  viscosity: 1.07 ± 0.018 mPa·s
333.15 K, 50000 kPa, x1 = 1
  viscosity: 1.624 ± 0.026 mPa·s
333.15 K, 60000 kPa, x1 = 0.2999
  viscosity: 0.6795 ± 0.012 mPa·s
333.15 K, 60000 kPa, x1 = 0.5001
  viscosity: 0.7967 ± 0.014 mPa·s
333.15 K, 60000 kPa, x1 = 0.7996
  viscosity: 1.172 ± 0.019 mPa·s
333.15 K, 60000 kPa, x1 = 1
  viscosity: 1.759 ± 0.029 mPa·s
333.15 K, 70000 kPa, x1 = 0.2999
  viscosity: 0.7435 ± 0.013 mPa·s
333.15 K, 70000 kPa, x1 = 0.5001
  viscosity: 0.8604 ± 0.015 mPa·s
333.15 K, 70000 kPa, x1 = 0.7996
  viscosity: 1.271 ± 0.021 mPa·s
333.15 K, 70000 kPa, x1 = 1
  viscosity: 1.905 ± 0.031 mPa·s
333.15 K, 80000 kPa, x1 = 0.2999
  viscosity: 0.8018 ± 0.014 mPa·s
333.15 K, 80000 kPa, x1 = 0.5001
  viscosity: 0.9339 ± 0.016 mPa·s
333.15 K, 80000 kPa, x1 = 0.7996
  viscosity: 1.387 ± 0.023 mPa·s
333.15 K, 80000 kPa, x1 = 1
  viscosity: 2.081 ± 0.034 mPa·s
333.15 K, 100000 kPa, x1 = 0.2999
  viscosity: 0.9315 ± 0.016 mPa·s
333.15 K, 100000 kPa, x1 = 0.5001
  viscosity: 1.089 ± 0.018 mPa·s
333.15 K, 100000 kPa, x1 = 0.7996
  viscosity: 1.613 ± 0.026 mPa·s
333.15 K, 100000 kPa, x1 = 1
  viscosity: 2.427 ± 0.039 mPa·s
333.15 K, 120000 kPa, x1 = 0.2999
  viscosity: 1.057 ± 0.018 mPa·s
333.15 K, 120000 kPa, x1 = 0.5001
  viscosity: 1.236 ± 0.02 mPa·s
333.15 K, 120000 kPa, x1 = 0.7996
  viscosity: 1.831 ± 0.03 mPa·s
333.15 K, 120000 kPa, x1 = 1
  viscosity: 2.716 ± 0.043 mPa·s
333.15 K, 140000 kPa, x1 = 0.2999
  viscosity: 1.196 ± 0.02 mPa·s
333.15 K, 140000 kPa, x1 = 0.5001
  viscosity: 1.408 ± 0.023 mPa·s
333.15 K, 140000 kPa, x1 = 0.7996
  viscosity: 2.083 ± 0.034 mPa·s
333.15 K, 140000 kPa, x1 = 1
  viscosity: 3.099 ± 0.049 mPa·s
353.15 K, 100 kPa, x1 = 0.2999
  viscosity: 0.2785 ± 0.0062 mPa·s
353.15 K, 100 kPa, x1 = 0.5001
  viscosity: 0.3272 ± 0.0068 mPa·s
353.15 K, 100 kPa, x1 = 0.7996
  viscosity: 0.4165 ± 0.0081 mPa·s
353.15 K, 100 kPa, x1 = 1
  viscosity: 0.6198 ± 0.011 mPa·s
353.15 K, 1000 kPa, x1 = 0.2999
  viscosity: 0.2825 ± 0.0062 mPa·s
353.15 K, 1000 kPa, x1 = 0.5001
  viscosity: 0.333 ± 0.0069 mPa·s
353.15 K, 1000 kPa, x1 = 0.7996
  viscosity: 0.4213 ± 0.0081 mPa·s
353.15 K, 1000 kPa, x1 = 1
  viscosity: 0.6273 ± 0.011 mPa·s
353.15 K, 5000 kPa, x1 = 0.2999
  viscosity: 0.2981 ± 0.0065 mPa·s
353.15 K, 5000 kPa, x1 = 0.5001
  viscosity: 0.349 ± 0.0071 mPa·s
353.15 K, 5000 kPa, x1 = 0.7996
  viscosity: 0.4405 ± 0.0084 mPa·s
353.15 K, 5000 kPa, x1 = 1
  viscosity: 0.6577 ± 0.012 mPa·s
353.15 K, 10000 kPa, x1 = 0.2999
  viscosity: 0.3222 ± 0.0068 mPa·s
353.15 K, 10000 kPa, x1 = 0.5001
  viscosity: 0.373 ± 0.0075 mPa·s
353.15 K, 10000 kPa, x1 = 0.7996
  viscosity: 0.4671 ± 0.0088 mPa·s
353.15 K, 10000 kPa, x1 = 1
  viscosity: 0.6999 ± 0.012 mPa·s
353.15 K, 20000 kPa, x1 = 0.2999
  viscosity: 0.3642 ± 0.0073 mPa·s
353.15 K, 20000 kPa, x1 = 0.5001
  viscosity: 0.4151 ± 0.0081 mPa·s
353.15 K, 20000 kPa, x1 = 0.7996
  viscosity: 0.5216 ± 0.0096 mPa·s
353.15 K, 20000 kPa, x1 = 1
  viscosity: 0.7717 ± 0.013 mPa·s
353.15 K, 30000 kPa, x1 = 0.2999
  viscosity: 0.4069 ± 0.0079 mPa·s
353.15 K, 30000 kPa, x1 = 0.5001
  viscosity: 0.4619 ± 0.0087 mPa·s
353.15 K, 30000 kPa, x1 = 0.7996
  viscosity: 0.5729 ± 0.01 mPa·s
353.15 K, 30000 kPa, x1 = 1
  viscosity: 0.8354 ± 0.014 mPa·s
353.15 K, 40000 kPa, x1 = 0.2999
  viscosity: 0.4472 ± 0.0085 mPa·s
353.15 K, 40000 kPa, x1 = 0.5001
  viscosity: 0.5088 ± 0.0094 mPa·s
353.15 K, 40000 kPa, x1 = 0.7996
  viscosity: 0.6309 ± 0.011 mPa·s
353.15 K, 40000 kPa, x1 = 1
  viscosity: 0.9088 ± 0.015 mPa·s
353.15 K, 50000 kPa, x1 = 0.2999
  viscosity: 0.4904 ± 0.0091 mPa·s
353.15 K, 50000 kPa, x1 = 0.5001
  viscosity: 0.5576 ± 0.01 mPa·s
353.15 K, 50000 kPa, x1 = 0.7996
  viscosity: 0.6907 ± 0.012 mPa·s
353.15 K, 50000 kPa, x1 = 1
  viscosity: 0.9898 ± 0.017 mPa·s
353.15 K, 60000 kPa, x1 = 0.2999
  viscosity: 0.54 ± 0.0099 mPa·s
353.15 K, 60000 kPa, x1 = 0.5001
  viscosity: 0.6147 ± 0.011 mPa·s
353.15 K, 60000 kPa, x1 = 0.7996
  viscosity: 0.7546 ± 0.013 mPa·s
353.15 K, 60000 kPa, x1 = 1
  viscosity: 1.07 ± 0.018 mPa·s
353.15 K, 70000 kPa, x1 = 0.2999
  viscosity: 0.5886 ± 0.011 mPa·s
353.15 K, 70000 kPa, x1 = 0.5001
  viscosity: 0.6678 ± 0.012 mPa·s
353.15 K, 70000 kPa, x1 = 0.7996
  viscosity: 0.8214 ± 0.014 mPa·s
353.15 K, 70000 kPa, x1 = 1
  viscosity: 1.151 ± 0.019 mPa·s
353.15 K, 80000 kPa, x1 = 0.2999
  viscosity: 0.6326 ± 0.011 mPa·s
353.15 K, 80000 kPa, x1 = 0.5001
  viscosity: 0.7221 ± 0.013 mPa·s
353.15 K, 80000 kPa, x1 = 0.7996
  viscosity: 0.8973 ± 0.015 mPa·s
353.15 K, 80000 kPa, x1 = 1
  viscosity: 1.242 ± 0.021 mPa·s
353.15 K, 100000 kPa, x1 = 0.2999
  viscosity: 0.7318 ± 0.013 mPa·s
353.15 K, 100000 kPa, x1 = 0.5001
  viscosity: 0.8402 ± 0.014 mPa·s
353.15 K, 100000 kPa, x1 = 0.7996
  viscosity: 1.046 ± 0.017 mPa·s
353.15 K, 100000 kPa, x1 = 1
  viscosity: 1.444 ± 0.024 mPa·s
353.15 K, 120000 kPa, x1 = 0.2999
  viscosity: 0.8276 ± 0.014 mPa·s
353.15 K, 120000 kPa, x1 = 0.5001
  viscosity: 0.9461 ± 0.016 mPa·s
353.15 K, 120000 kPa, x1 = 0.7996
  viscosity: 1.206 ± 0.02 mPa·s
353.15 K, 120000 kPa, x1 = 1
  viscosity: 1.644 ± 0.027 mPa·s
353.15 K, 140000 kPa, x1 = 0.2999
  viscosity: 0.9377 ± 0.016 mPa·s
353.15 K, 140000 kPa, x1 = 0.5001
  viscosity: 1.069 ± 0.018 mPa·s
353.15 K, 140000 kPa, x1 = 0.7996
  viscosity: 1.367 ± 0.022 mPa·s
353.15 K, 140000 kPa, x1 = 1
  viscosity: 1.845 ± 0.03 mPa·s
